Results reported in PMC9388626, “STUB1 is an intracellular checkpoint for interferon gamma sensing” (Scientific Reports, 2022).

Experiments:
B16-F10 cells [1] = assay: Validation of monoclonal Stub1-knockout lines (Western, ICE CRISPR analysis); assay type: cell-based, murine; conditions: single clone from Stub1-knockout B16-F10 cells
Protocol: Tumour cells were genetically edited by electroporating the Cas9/crRNA/tracrRNA or Cas9/sgRNA ribonucleoprotein (RNP) complexes into cells using the 4D-nucleofector system (Lonza). To prepare the guide RNA complex, a 1:1 mixture of Alt-R crRNA and tracrRNA (50 µM each, IDT) in nuclease-free duplex buffer (IDT) was heated at 95 °C for 5 min, followed by cooling to room temperature. The crRNA/tracrRNA complex or the sgRNA (150 pmol) was mixed with Alt-R S.p. HiFi Cas9 Nuclease V3 (100 pmol, IDT, #1081060), and the resulting mixture was incubated at room temperature for 10 min to form the final RNP complexes which were used immediately. In parallel, the harvested tumour cells were rinsed with PBS. After re-suspending in 20 µl nucleofactor solution (Lonza), the cell suspension was added to the final RNP complexes (4.6 µl) in microcentrifuge tube. The resulting cell suspension was transferred to a designated well of nucleocuvette strip which was then pulsed with the nucleofector system using a preset program. After pulsing, culture media (75 µl) was added and the cell suspension was transferred to a designated well of a 12-well plate filled with 1.0 ml culture media. After 48 h incubation, the CRISPR-edited B16-F10 were subcloned by limiting dilution. The monoclonal cell lines were validated by Western blotting and analyzing the Sanger sequencing results of the PCR amplicon (~ 800 bp) flanking the crRNA-targeted site using ICE v2 CRISPR analysis tool (Synthego). For CT26, the cells were sorted for the top 50th percentile of IFNGR1-high population using BD FACSAria to enrich for the Stub1-null cells (Supplementary Fig. 10a). Human tumour cells, e.g., DU145, PC-3 and MCF7, were used right after the CRISPR editing. Sorting or subcloning was not applied to the human cell lines, since these lines were studied for a brief period in in vitro setting. Loss of STUB1 protein in the human cell lines was confirmed by Western blot analysis.

B16-F10 cells [2] = assay: Western blot, IRF1, STAT1 and phospho-Tyr701-STAT1 at 2 h post IFNγ; assay type: cell-based, murine; conditions: Stub1-null B16-F10, 2 h
Protocol: Cells were dissociated from the wells with 0.25% trypsin (Gibco, 25200056). After rinsing with 0.5 ml PBS, the cell pellets were lysed with chilled cell lysis buffer (Cell Signaling Technology, #9803) supplemented with Halt protease inhibitor cocktail (Thermo Scientific, #78430) and phosphatase inhibitor (Sigma-Aldrich, # 4906837001) for 30 min with intermittent vortexing. The lysate was transferred into PCR-strip tubes and sonicated in a chilled water bath sonicator (QSonica). Lysates were clarified by centrifugation at 15,000 rpm at 4 °C for 15 min. Protein concentration was determined using BCA protein assay kit (Pierce, #23225). The lysates were mixed with LDS sample buffer (Life Technologies, NP0008) and sample reducing agent (Life Technologies, NP0009), followed by heating at 70 °C for 10 min to fully denature the protein. […] Membrane blots were pre-stained with total protein stain (LI-COR, # 926-11016) and imaged with Odyssey CLx. […] The blots were finally probed, for overnight at 4 °C, with the appropriate primary antibodies diluted in Intercept (TBS) blocking buffer supplemented with 0.1% (v/v) Tween-20, followed by the secondary antibodies (IRDye 800CW donkey anti-rabbit or anti-mouse IgG, LI-COR) for 1 h at room temperature. Fluorescent signals were imaged and quantified using Odyssey CLx and Image Studio v5.0. […]

DU145 cells = assay: Growth inhibition, CellTiter-Glo 2.0 (ATP); assay type: cell-based, human; conditions: DU145 (prostate), 10 ng ml^−1 each, 6 days
Protocol: (§1) Parental and CRISPR-edited tumour cells were seeded in a cell density of 1800 (DU145), 2000 (PC-3), or 10,000 (MCF7) per well in 96-well CellCarrier plate (PelkinElmer, #6005550) filled with 50 µl culture media + 10% FBS. After 20–24 h incubation, the cells were treated with 10 ng ml^−1 of recombinant human IFNγ (R&D Systems, 285-IF-100), 10 ng ml^−1 of recombinant human TNFα (R&D Systems, 210-TA-020/CF) or a combination of both, by adding an equal volume of the complete culture media containing the cytokines. After incubating for 6 days without media change, the CellTiter-Glo 2.0 (Promega, G9243) or CellTiter-Fluor (Promega, G6082) assay were performed according to manufacturer’ instructions. The luminescence or fluorescence (Ex: 380–400 nm, Em: 505 nm) were detected by Inifinte M1000 PRO (Tecan). For CellTiter-Fluor, triplicate wells without cells were included to determine background fluorescence and the signal average was used for background substraction.

PC-3 cells = assay: Growth inhibition, CellTiter-Glo 2.0 (ATP); assay type: cell-based, human; conditions: PC-3 (prostate), 10 ng ml^−1 each, 6 days
Protocol: as §1

| Substance | Comment (knock-out by Western blot and ICE analysis) (B16-F10 cells [1]) | Indel (B16-F10 cells [1]) | Indel % (by Synthego ICE) (B16-F10 cells [1]) | Early induction of IRF1 and phospho-Tyr701-STAT1 (B16-F10 cells [2]) | Growth inhibition of PTPN2- or STUB1-null cells (DU145 cells) | Growth inhibition of PTPN2- or STUB1-null cells (PC-3 cells) |
| --- | --- | --- | --- | --- | --- | --- |
| gStub1 #1 (guide GCATTGCTAAGAAGAAGCGC; chemistry not given here) | complete knock-out as assessed by Western blot and ICE analysis | -12 -15 | 93% |  |  |  |
| IFNγ |  |  |  | Loss of Stub1 lowers the stimulating threshold of IFNγ | sensitized PTPN2- or STUB1-null prostate tumour cells to growth inhibition | sensitized PTPN2- or STUB1-null prostate tumour cells to growth inhibition |
